Results as given in US9243281B2, “Neuroprotective chemicals and methods for identifying and using same” (Board of Regents of The University of Texas System, priority 2013, dated 2016).

How the values were obtained:
Human NAMPT = target: T1, Human NAMPT (Homo sapiens, UniProt P43490); assay: in vitro NAMPT coupled-enzyme assay (NADH at OD340 nm); type: biochemical; settings: relative reaction rate normalized by the control reaction run prior to compound addition; vehicle 0.98
T1 construct: made in house; host or cells: E. coli
Procedure: FIGS. 7A-7C. […] (FIG. 7A) P7C3-A20 was incubated at indicated concentrations in a reaction coupled with three enzymes; NAMPT, NMNAT, and ADH (Experimental Procedures). NAMPT activity was recorded for the indicated period of time at OD340 nm by measuring NADH appearance, leading to the indicated concentration-time plot. […] (FIG. 7B) Analysis of the activities of thirty P7C3 analogs was performed to assess their effects on NAMPT enzymatic activity. The reaction rate was calculated as the slope of the concentration-time curve. Relative reaction rate was normalized by the control reaction run prior to compound addition. Data represents the mean of experimental duplicates. Scatter graphs were plotted to compare the ability of compounds to activate NAMPT relative to their ability to compete away P7C3-S326 crosslinking (top scatter plot), ability to protect cells from doxorubicin-mediated toxicity (middle scatter plot), or ability to facilitate NAD restoration in doxorubicin-treated cells (bottom scatter plot). […] Data are expressed as mean±SD of duplicate independent assays.
The enzymatic activity of recombinant NAMPT was monitored in a coupled assay wherein nicotinamide conversion to NMN was followed by sequential production of NAD (via the NMNAT enzyme) and NADH (via alcohol dehydrogenase). To minimize variation, a control reaction was run in each assay prior to compound addition.
Briefly, NAMPT first converted nicotinamide to NMN, which was followed by sequential production of NAD via nicotinamide mononucleotide adenylyl-transferase (NMNAT). NAD was then reduced to NADH by alcohol dehydrogenase (Sigma) using alcohol as the substrate. The resulting NADH was monitored by OD340 nm. […] 10 mM stocks of P7C3 analogs in DMSO were further diluted in ethanol prior to applying to the reaction. To minimize variation, a control reaction was run in each assay prior to compound addition.

p70 (NAMPT) = target: T2, p70 (NAMPT) (Homo sapiens, UniProt P43490); assay: binding competition for photo-crosslinking of P7C3-S326 to p70 in H2122 cells; settings: 0.3 μM P7C3-S326 plus 5 μM competitor, p70 band intensity, P7C3-S326 alone compared with plus competitor, vehicle 1.0
T2 construct: endogenous in cells; host or cells: H2122 lung cancer cells
How it was run: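 Competition for photo-crosslinking: P7C3 analogs (5 uM) were added alongside the 0.3 μM P7C3-S326 probe to H2122 cells for 2 hours before 15 minutes of 306 nm UV irradiation. In-gel fluorescence of the p70 band after click labeling was normalized to DMSO.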

[1] = tested on: hippocampal neurogenesis (Dentate Gyrus); assay: in vivo neurogenesis assay (BrdU+ cells in dentate gyrus); parameters: species or system mice; settings: living mice; vehicle (DMSO) 7.3
How it was run: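 New hippocampal cells were tracked by daily BrdU injections and anti-BrdU staining of brain sections. Adult mice (two per pool of ten compounds) got week-long intracerebroventricular infusion by mini-pump, dosed for mid-nanomolar exposure.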

T1 sequence (P43490 whole entry): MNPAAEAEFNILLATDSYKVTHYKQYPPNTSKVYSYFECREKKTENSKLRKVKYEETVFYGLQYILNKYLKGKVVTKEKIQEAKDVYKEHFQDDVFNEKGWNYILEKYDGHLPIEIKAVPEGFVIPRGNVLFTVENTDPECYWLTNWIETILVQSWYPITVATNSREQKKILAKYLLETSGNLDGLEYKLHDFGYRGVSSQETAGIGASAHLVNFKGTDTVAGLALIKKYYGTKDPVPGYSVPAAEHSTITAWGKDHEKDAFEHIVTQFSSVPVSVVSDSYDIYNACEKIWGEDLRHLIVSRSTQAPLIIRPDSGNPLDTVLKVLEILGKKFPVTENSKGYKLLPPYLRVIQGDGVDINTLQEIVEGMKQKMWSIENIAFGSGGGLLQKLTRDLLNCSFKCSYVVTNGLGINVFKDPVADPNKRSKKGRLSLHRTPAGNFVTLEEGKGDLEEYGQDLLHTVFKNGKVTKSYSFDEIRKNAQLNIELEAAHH
T2 sequence (P43490 whole entry): as above

Row | Structure (SMILES) | NAMPT activation (Human NAMPT) | Binding competition (p70 (NAMPT)) | Neurogenesis # BrdU+ Cells (X10E06)/mm3 Dentate Gyrus [1]
1 | COC(=O)NC(=O)Cn1c2ccc(Br)cc2c2cc(Br)ccc21 [S234] | 0.93 | 1.0 | 17.8 (X10E06)/mm3
2 | Cc1cc2c(cn1)[nH]c1ccc(Br)cc12 [S226] | 0.96 | 1.9 | 12.8 (X10E06)/mm3
3 | NC(=O)Cn1c2ccc(Br)cc2c2cc(Br)ccc21 [S213] | 1.00 | 1.1 | 6.5 (X10E06)/mm3
4 | FC(F)(COc1ccccc1)Cn1c2ccc(Br)cc2c2cc(Br)ccc21 [S56] | 1.06 | 1.0 | 8.4 (X10E06)/mm3
5 | CC(C)(C)OC(=O)NCC(F)Cn1c2ccc(Br)cc2c2cc(Br)ccc21 (centres unmarked) [S208] | 1.16 | 1.2 | 13.5 (X10E06)/mm3
6 | O=S(=O)(CC(F)Cn1c2ccc(Br)cc2c2cc(Br)ccc21)c1ccc(O)cc1 (centres unmarked) [S103] | 0.97 | 1.9 | 7.0 (X10E06)/mm3
7 | CN1C(=O)CN=C(c2ccc(Cl)cc2)c2cc(Cl)ccc21 [S203] | 1.00 | 3.9 | 10.8 (X10E06)/mm3
8 | N#Cc1cc2c3cc(Br)ccc3n(CC(O)COc3ccccc3)c2cn1 (centres unmarked) [S192] |  | 4.2 | 10.5 (X10E06)/mm3
9 | CNCCC(Oc1ccc(C(F)(F)F)cc1)c1ccccc1 (centres unmarked) [S122, Prozac, reference compound] |  | 1.4 | 10.0 (X10E06)/mm3
10 | O=C(O)CN1c2ccccc2CCc2ccccc21 [S210] |  | 1.1 | 10.7 (X10E06)/mm3
11 | Cc1ccc2c(c1)c1c(n2CC(O)CNc2ccccc2)CCN(C)C1 (centres unmarked) [S46] |  | 1.9 | 9.2 (X10E06)/mm3
12 | [N-]=[N+]=Nc1cccc(NCC(O)Cn2c3ccc(Br)cc3c3cc(Br)ccc32)c1 (centres unmarked) [S36] |  | 3.1 | 8.9 (X10E06)/mm3
13 | FC(COc1ccccc1)Cn1c2c(c3cc(Br)ccc31)CNCC2 (centres unmarked) [S108] |  | 1.0 | 7.6 (X10E06)/mm3
14 | OC(CNc1ccccn1)Cn1c2ccc(Br)cc2c2cc(Br)ccc21 (centres unmarked) [S38] |  | 4.2 | 13.7 (X10E06)/mm3
15 | CC(C)(C)OC(=O)NCCCCCOc1ccc(S(=O)(=O)CC(O)Cn2c3ccc(Br)cc3c3cc(Br)ccc32)cc1 (centres unmarked) [S141] |  | 2.7 | 11.3 (X10E06)/mm3
16 | COc1ccc2[nH]cc(CCNC(C)=O)c2c1 [S193] |  | 1.1 | 7.8 (X10E06)/mm3
17 | O[C@@H](COc1ccccc1)Cn1c2ccc(Br)cc2c2cc(Br)ccc21 [S40] |  | 2.8 | 8.1 (X10E06)/mm3
18 | COc1cccc(NC[C@H](O)Cn2c3ccc(Br)cc3c3cc(Br)ccc32)c1 [S16] |  | 3.1 | 9.2 (X10E06)/mm3
19 | OC(CCNc1ccccc1)Cn1c2ccc(Br)cc2c2cc(Br)ccc21 (centres unmarked) [S32] |  | 2.7 | 13.8 (X10E06)/mm3
20 | OC(COc1ccccc1)Cn1c2ccccc2c2cc(Br)ccc21 (centres unmarked) [S150] |  | 4.1 | 8.4 (X10E06)/mm3
21 | CC(=O)NCC(F)Cn1c2ccc(Br)cc2c2cc(Br)ccc21 (centres unmarked) [S218] |  | 3.2 | 9.5 (X10E06)/mm3
22 | CN(C)CCC=C1c2ccccc2CCc2ccccc21.Cl [S86, Amitriptyline, reference compound] |  | 1.3 | 9.7 (X10E06)/mm3
23 | COCC(O)Cn1c2ccc(Br)cc2c2cc(Br)ccc21 (centres unmarked) [S19] |  | 2.9 | 10.5 (X10E06)/mm3
24 | COc1cccc(S(=O)(=O)CC(O)Cn2c3ccc(Br)cc3c3cc(Br)ccc32)c1 (centres unmarked) [S82] |  | 2.3 | 11.8 (X10E06)/mm3

Row | Structure (SMILES) | NAMPT activation (Human NAMPT) | Binding competition (p70 (NAMPT)) | Neurogenesis # BrdU+ Cells (X10E06)/mm3 Dentate Gyrus [1]
25 | N#Cc1ccc(N(CC(O)COc2ccccc2)c2ccc(Br)cc2)nc1 (centres unmarked) [S136] |  | 5.7 | 6.5 (X10E06)/mm3
26 | OC(CNc1cccc2ccccc12)Cn1c2ccc(Cl)cc2c2cc(Cl)ccc21 (centres unmarked) [S184] |  | 2.5 | 6.7 (X10E06)/mm3
27 | OC(CN1c2ccccc2CCc2ccccc21)Cn1ccc2ccccc21 (centres unmarked) [S132] |  | 1.3 | 11.4 (X10E06)/mm3
28 | O=C(O)c1cc2c3cc(Br)ccc3n(CC(O)COc3ccccc3)c2cn1 (centres unmarked) [S173] |  | 1.0 | 12.8 (X10E06)/mm3
29 | OC(COc1ccccc1)Cn1c2c(c3cc(Br)ccc31)CN(C1CC1)CC2 (centres unmarked) [S106] |  | 1.4 | 10.9 (X10E06)/mm3
30 | NNCCc1ccccc1 [S116, Nardi, reference compound] |  | 1.2 | 11.0 (X10E06)/mm3
31 | O=S(=O)(CC(O)Cn1c2ccc(Br)cc2c2cc(Br)ccc21)c1ccc(O)cc1 (centres unmarked) [S94] |  | 3.8 | 8.5 (X10E06)/mm3
32 | COc1c(Br)ccc2c1c1cc(Br)ccc1n2CC(O)CNc1ccccc1 (centres unmarked) [S168] |  | 3.5 | 14.6 (X10E06)/mm3
33 | [O-][n+]1ccc2c(c1)c1cc(Br)ccc1n2CC(O)COc1ccccc1 (centres unmarked) [S195] |  | 1.1 | 9.0 (X10E06)/mm3
34 | COc1ccc(SCC(O)Cn2c3ccc(Br)cc3c3cc(Br)ccc32)cc1 (centres unmarked) [S78] |  | 2.7 | 14.1 (X10E06)/mm3
35 | COc1cccc(NCC(C)(O)Cn2c3ccc(Br)cc3c3cc(Br)ccc32)c1 (centres unmarked) [S54] |  | 3.8 | 16.7 (X10E06)/mm3
36 | NCC(O)Cn1c2ccc(Br)cc2c2cc(Br)ccc21 (centres unmarked) [S20] |  | 1.3 | 12.7 (X10E06)/mm3
37 | COc1cccc(NCC(O)Cn2c3ccc(Br)cc3c3cc(Br)ccc32)n1 (centres unmarked) [S188] |  | 3.1 | 13.1 (X10E06)/mm3
38 | OC(CNc1cccc2ccccc12)Cn1c(-c2ccccc2)cc2ccccc21 (centres unmarked) [S185] |  | 1.5 | 12.6 (X10E06)/mm3
39 | COc1cccc(N(CC(O)Cn2c3ccc(Br)cc3c3cc(Br)ccc32)S(=O)(=O)C(F)(F)F)c1 (centres unmarked) [S244] |  | 1.1 | 11.6 (X10E06)/mm3
40 | COc1cccc(NCC(O)Cn2c3ccc(C#N)cc3c3cc(C#N)ccc32)c1 (centres unmarked) [S65] |  | 3.3 | 12.9 (X10E06)/mm3
41 | O=C(O)c1cc2c(cn1)[nH]c1ccc(Br)cc12 [S206] |  | 1.4 | 14.8 (X10E06)/mm3
42 | N#Cc1ccc2c(c1)c1ccccc1n2CC(O)COc1ccccc1 (centres unmarked) [S138] |  | 6.5 | 10.4 (X10E06)/mm3
43 | CN(C)c1nc(O)c2[nH]c3ccccc3c2n1 [S245] |  | 1.0 | 16.2 (X10E06)/mm3
44 | CC(C)(C)NCC(O)CN1c2ccccc2CCc2ccccc21 (centres unmarked) [S145] |  | 2.6 | 12.5 (X10E06)/mm3
45 | OC(CSc1ccccc1)Cn1c2ccc(Br)cc2c2cc(Br)ccc21 (centres unmarked) [S7] |  | 2.0 | 15.5 (X10E06)/mm3
46 | O=C(COc1ccc(NCC(F)Cn2c3ccc(Br)cc3c3cc(Br)ccc32)cc1)NCCO (centres unmarked) [S71] |  | 3.1 | 7.2 (X10E06)/mm3
47 | CC(C)NCC(O)CN1c2ccccc2CCc2ccccc21 (centres unmarked) [S144] |  | 1.4 | 9.1 (X10E06)/mm3
